Measurements from patent publication US6645715B1, “Artificial cornea” (University of Ottawa, priority 1998, dated 2003).

What was measured:
[1] = test system: FFA-activated K^+ current of cultured human corneal epithelial cells; assay: Perforated-patch whole-cell patch clamp, pharmacological activators (FFA-activated current); type: cell-based; details: for effect on the FFA-activated current: 3 mM TEA or 5 mM Ba^+2
Method: (§1) Single cells for patch clamp analysis of transfected and non-transfected cells were obtained by washing cultured cells free of culture medium using PBS containing 0.53 mM EDTA and then incubating with Ca^+2 and Mg^+2 free Hanks' balanced salt solution (GIBCO) containing 0.05% trypsin and 0.53 mM EDTA for 2 minutes at 37° C. in a 5% CO2 incubator. Loose cells were aspirated into a Pasteur pipette and transferred into a conical tube containing Media 199 (Sigma, St. Louis, Mo.) supplemented with 10% FCS (Sigma, St. Louis, Mo.). Isolated cells were transferred to an inverted microscope mounted with an external stage, placed into an acrylic chamber filled with Ringer's solution, and allowed to settle and attach to the glass bottom.
Macroscopic currents in single cells were examined using the perforated-patch configuration of the whole-cell patch-clamp technique with amphotericin B as the perforating agent. The composition of the patch pipette in millimolar was 145 potassium methanesulfonate, 2.5 NaCl, 2.5 CaCl2, 5 HEPES, and […] amphotericin B. Patch pipettes were fabricated from KG-12 capillary glass, coated with Sylgard (Dow Corning, Midland, Mich.) and fire polished. Currents were recorded at room temperature using a patch-clamp amplifier operated by Gateway 486DX2 computer (Gateway 2000, Sioux City, S. Dak.) loaded with pCLAMP software (Axon 200A, Axon Instruments, Foster City, Calif.) for the generation of voltage-clamp protocols. Current recordings were capacity compensated using the amplifier circuitry, sampled between 2 to 5 kHz, filtered between 1 to 2 kHz, and subsequently analyzed with the software program. Voltage-clamp protocols were repeated at least three times to obtain the average current response to a voltage pulse. Current voltage (I-V) relationships were corrected for the junction potential generated by the pipette solution and the amphotericin B-induced Donnan potential by subtracting the difference between the reversal potential of tail currents measured in symmetrical K^+ solutions and the 0 mV potential.
The tests of examples 1.1, 1.2, and 1.3 were repeated following the addition of 100 μM flufenamic acid (FFA) to the NaCl Ringer's bath.
To determine the ion selectivity of this TEA-sensitive FFA-activated current, cultured human corneal epithelial cells were bathed in NaCl Ringer's solution with 100 μM FFA and a family of instantaneous tail currents was generated. The same cells were then bathed in NaCl Ringer's solution with 100 μM FFA and 3 mM TEA and a second family of instantaneous tail currents was generated. An instantaneous tail I-V plot was obtained by digitally subtracting the instantaneous tail responses determined for the same cell bathed with FFA with and without TEA.

[2] = test system: nonselective cation current of human corneal epithelial cells; assay: Perforated-patch whole-cell patch clamp, nonselective cation current; type: cell-based; details: 1 mM external
Method: as §1
Macroscopic currents in single cells were examined using the perforated-patch configuration of the whole-cell patch-clamp technique with amphotericin B as the perforating agent. […] Currents were recorded at room temperature using a patch-clamp amplifier operated by Gateway 486DX2 computer (Gateway 2000, Sioux City, S. Dak.) loaded with pCLAMP software (Axon 200A, Axon Instruments, Foster City, Calif.) for the generation of voltage-clamp protocols. Current recordings were capacity compensated using the amplifier circuitry, sampled between 2 to 5 kHz, filtered between 1 to 2 kHz, and subsequently analyzed with the software program. […]

[3] = test system: endothelium of reconstructed corneas (Na/K ATPase); assay: Endothelial function test: corneal thickness by Optical Coherence Tomography after ouabain; type: cell-based, human; details: 10^-4M ouabain in DMEM, 2 hours, silicone oil on epithelium; one set of corneas, preliminary
From the text: Ouabain, a cardiac glycoside, inhibits Na/K ATPase, disrupting corneal endothelial functioning. When this is applied to the cornea, the endothelium looses its pumping function, and without this, the cornea will swell (Watsky et al. 1990).
1. Corneas were reconstructed in 30 mm inserts. In this experiment, we have contructed them with the epithelium down.
2. A whole cornea was immersed in DMEM only.
3. At the start of the experiment, medium outside insert was removed and replaced with silicone oil. This essentially seals off the epithelium. Corneal thickness was measured using Optical Coherence Tomography (OCT) (Humphrey Instruments, Carl Zeiss, Inc.). Four readings were taken from each cornea and the average was taken.
4. DMEM within the control insert was replaced with 1 ml of fresh DMEM only. Experimental cornea was treated with 10^-4M ouabain in DMEM.
5. After 2 hours, the corneal thicknesses were measured by OCT.
6. Changes in corneal thickness (if any) was calculated.

[4] = test system: primary HUVECs (Normal Cells); assay: Response to growth factors, primary HUVECs in matrix; type: cell-based, human
Method: Human umbilical vein endothelial cells (HUVECs) were harvested from umbilical cord veins as previously described (Sirois E, et al., Int. J. Artificial Organs 16:609-619, 1993). They were grown on a gelatin-coated dish until confluence in Medium 199 supplemented with 20% FBS, 90 mg/l of heparin, 2 mM of L-glutamine and 100 μg/ml endothelial cell growth supplement (ECGS). Penicillin (100 I.U./ml), streptomycin sulfate (100 μg/ml) and amphotericin B (0.25 μg/ml) were present in medium. After the first passage, FBS concentration was reduced to 10% and ECGS to 20 μg/ml. Cells were subcultured at a ratio of 1:3 or 1:4 and HUVECs from the 2nd to 4th passages were used in our bioassays. Endothelial cell phenotype was verified by the dii-acetylated low-density lipoprotein (diI-Ac-LDL) uptake and positivity to factor VIII-related antigen antibodies by immunocytochemistry. Cultures were incubated in 5% CO2 atmosphere at 37° C. in saturated humidity. The medium was changed every other day.
The virally transfected HUVECs were tested for functionality by their ability to undergo angiogenesis in a three-dimensional fibrin-containing matrix (FIG. 16); and their ability to sequester acetylated low density lipoprotein labelled with 1,1′-dioctadecyl-3,3,3′,3′-tetramethylindocarbocyanine perchlorate (DiI-Ac-LDL; Biomed. Technol. Inc., Stoughton, Mass.), (FIGS. 17 and 18). […]

[5] = test system: immortalized HUVECs (Cell Lines); assay: Response to growth factors, immortalized HUVECs in matrix; type: cell-based, human
Method: For transfection, primary HUVECs were seeded onto uncoated 60 mm tissue culture plates and cultured until 60-70% confluent. They were then immortalized by infection with the HPV16 E6 and E7 genes and selected by G418 resistance as described above.
The virally transfected HUVECs were tested for functionality by their ability to undergo angiogenesis in a three-dimensional fibrin-containing matrix (FIG. 16); and their ability to sequester acetylated low density lipoprotein labelled with 1,1′-dioctadecyl-3,3,3′,3′-tetramethylindocarbocyanine perchlorate (DiI-Ac-LDL; Biomed. Technol. Inc., Stoughton, Mass.), (FIGS. 17 and 18). Immortalized HUVECs can also be maintained in the serum-free medium. As with corneal cell lines, other genes can also be introduced into HUVEC lines. For example, GFP has been introduced by transfection.
During the assays in matrices, cells were grown in serum (10%) supplemented-medium 199 containing heparin, L-glutamine or modified glutamine such as L-Alanyl-L-Glutamine (GlutaMAX™, GIBCO) and antibiotics at the same concentration as described above, without ECGS, but with 50 ng/ml of FGF-2. Serum-free medium has also been used.

[6] = test system: reconstructed corneas; assay: Live-dead staining of reconstructed corneas after chemical exposure; type: cell-based, human; details: SDS; 0.01% benzalkonium chloride solution
From the text: Live cells are green, while dying or dead cells are orange-red. […] C.

[7] = test system: reconstructed corneas; assay: Responses of reconstructed corneas to aqueous test chemicals (wound, corneal transparency); type: cell-based, human; details: 100 μl centrally for 10 min, washed off with saline, re-cultured 3 days; 10% SDS, 0.01% benzalkonium chloride solution
Method: Each cornea was exposed centrally to 100 μl of the test chemical for 10 min, after which the chemical was washed off with saline and the corneas were re-cultured for a further 3 days. The saline-treated cornea served as the control.

O=C(O)c1ccccc1Nc1cccc(C(F)(F)F)c1 [FFA, flufenamic acid]
voltages at which a second FFA-stimulated K^+ current is active [1]: greater than +10 mV | activation voltage of the FFA-stimulated current (I-V plot) ([1]; 100 μM FFA): about −60 mV | increase in the maximum outward current ([1]; 100 μM FFA in NaCl Ringer's bath, versus cells not exposed): more than 10 fold | Erev for the TEA-sensitive FFA-activated current ([1]; 100 μM FFA with and without 3 mM TEA, digital subtraction of instantaneous tail currents): about −80 mV | reversibility of the FFA response ([1]; 100 μM FFA, same cell): reversible and repeatable

CC[N+](CC)(CC)CC [TEA, tetraethylammonium]
effect on the FFA-activated current ([1]; 100 μM FFA): blocked

[Ba+2] [barium]
effect on the FFA-activated current ([1]; 100 μM FFA): blocked | sensitivity of the nonselective cation current [2]: not sensitive

[Gd] [gadolinium]
sensitivity of the nonselective cation current [2]: not sensitive

C[C@@H]1O[C@@H](O[C@H]2C[C@@H](O)[C@]3(CO)[C@H]4[C@H](O)C[C@]5(C)[C@@H](C6=CC(=O)OC6)CC[C@]5(O)[C@@H]4CC[C@]3(O)C2)[C@H](O)[C@H](O)[C@H]1O [ouabain, Ouabain]
change in corneal thickness (swelling) [3]: 24%

FGF-2: basic fibroblast growth factor
Response to Growth Factors, Normal Cells ([4]; FGF-2 (50 ng/ml)): Angiogenesis | Response to Growth Factors, Normal Cells ([4]; FGF-2, concentration not given): Cell death | Response to Growth Factors, Cell Lines ([5]; FGF-2 (50 ng/ml)): Angiogenesis | Response to Growth Factors, Cell Lines ([5]; FGF-2, concentration not given): Cell death

benzalkonium chloride
live-dead staining, epithelial cells [6]: some dead and dying cells but mostly live cells | live-dead staining, stromal cells [6]: mostly alive | penetration into the stromal compartment [6]: little/no penetration of solution into the stromal compartment | wound / change of corneal transparency [7]: caused wounds to the centre of the cornea
